Measured values reported in paper PMC9029089, “1,5-Disubstituted Acylated 2-Amino-4,5-dihydroimidazoles as a New Class of Retinoic Acid Receptor–Related Orphan Receptor (ROR) Inhibitors” (International Journal of Molecular Sciences, 2022).

Biological target: T1, RORγ (Mus musculus, UniProt P51450)
T1 construct: mRORγ (Pro-261-end); expressed in transfected cells
T1 sequence (P51450 261-516 limits assumed): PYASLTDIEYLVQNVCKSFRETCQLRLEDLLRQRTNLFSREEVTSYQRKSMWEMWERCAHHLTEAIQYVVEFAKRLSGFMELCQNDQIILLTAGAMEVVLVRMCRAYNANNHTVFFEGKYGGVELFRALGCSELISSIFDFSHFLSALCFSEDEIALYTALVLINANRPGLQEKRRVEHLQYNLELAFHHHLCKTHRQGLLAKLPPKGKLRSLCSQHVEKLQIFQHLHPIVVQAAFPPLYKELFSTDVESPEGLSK
Assay: Gal4-RORγ-LBD UAS-luciferase reporter assay in TRex-CHO-K1 cells (doxycycline-stimulated)
Type: cell-based
Conditions: individual controls 1295.201-307, 5 μg/ml, triplicate
From the text: The Gal4-DBD-ROR-LBD fusion proteins were subcloned in the pcDNA4/TO expression vector (Thermo Scientific) and transfected into TRex-CHO-K1 cells (Thermo Scientific) for tetracycline-controlled expression of the corresponding ROR proteins. Transfected cells were selected with hygromycin and Zeocin and individual clones for each of the Gal4-RORγ, Gal4-RORα, and Gal4-RORβ cell lines were isolated using a standard serial dilution protocol. Clones with the highest doxycycline-dependent stimulation of luciferase activity were selected for all functional experiments.
For screening FIU libraries, cells were resuspended in Ham’s F-12 assay medium containing 2% charcoal-treated FBS and no selection drugs. […] Cells were allowed to attach for 2 h, followed by compound treatment and stimulation with 20 ng/mL doxycycline for an additional 16–20 h. Appropriate solvent controls, negative controls with no doxycycline, and blanks with no cells were included in every plate. Prior to measuring luciferase activity, 6 µL of 0.15 mg/mL resazurin (Cayman Chemical) in PBS were added and cells were incubated for 1 h at 37 °C. Fluorescence intensity was detected at 545 nm excitation/590 nm emission using a CLARIOstar reader (BMGLabtech) as a measure of cell viability, to identify any potential cytotoxic effect of test compounds and mixtures.
Luminescence was normalized by the fluorescence intensity and the percentage of inhibition was calculated with respect to control cells stimulated with doxycycline in the presence of solvent control (0.1% DMF). All primary screens with individual compounds were performed in triplicate with a final concentration of 5 µg/mL. […] IC50 values were calculated using GraphPrism (GraphPad software).

SMILES | % Inhibition RORγ 5 μg/ml
CCc1ccc(-c2ccc(C(=O)NC3=NC[C@H](Cc4ccccc4)N3CCc3ccccc3)cc2)cc1 [1295.292] | 48.3%
O=C(Cc1ccccc1)NC1=NC[C@H](Cc2ccccc2)N1CCCc1ccccc1 [1295.251] | -112.4%
CC(C)C(=O)NC1=NC[C@H](Cc2ccccc2)N1CCc1ccccc1 [1295.295] | 31.3%
O=C(Cc1ccccc1)NC1=NC[C@H](Cc2ccccc2)N1CC1CCC1 [1295.265] | 53.1%
O=C(Cc1ccccc1)NC1=NC[C@@H](Cc2ccc(Cl)cc2)N1CCc1ccccc1 [1295.226] | 6.9%
O=C(Cc1ccccc1)NC1=NC[C@@H](CC2CCCCC2)N1CCc1ccccc1 [1295.224] | 9.6%
O=C(Cc1ccccc1)NC1=NC[C@H](Cc2ccccc2)N1CC1CCCCCC1 [1295.263] | -8.4%
O=C(Cc1cccc(Br)c1)NC1=NC[C@H](Cc2ccccc2)N1CCc1ccccc1 [1295.277] | 97.6%
CCOc1ccc(CCN2C(NC(=O)Cc3ccccc3)=NCC2Cc2ccccc2)cc1 (centres unmarked) [1295.244] | 5.9%
CC(C)Cc1ccc(C(C)C(=O)NC2=NCC(Cc3ccccc3)N2CCc2ccccc2)cc1 (mixture of isomers) [1295.283] | 58.6%
O=C(Cc1ccccc1)NC1=NC[C@H](Cc2ccc(Cl)cc2)N1CCc1ccccc1 [1295.225] | -32.6%
COc1ccc(CC(=O)NC2=NC[C@H](Cc3ccccc3)N2CCc2ccccc2)cc1 [1295.281] | 52.6%
CCCC[C@H]1CN=C(NC(=O)Cc2ccccc2)N1CCc1ccccc1 [1295.217] | 13.0%
O=C(NC1=NC[C@H](Cc2ccccc2)N1CCc1ccccc1)C1CCCC1 [1295.303] | 3.3%
COc1ccc(CCCN2C(NC(=O)Cc3ccccc3)=NC[C@H]2Cc2ccccc2)cc1OC [1295.247] | 32.5%
CCCC[C@@H]1CN=C(NC(=O)Cc2ccccc2)N1CCc1ccccc1 [1295.218] | -11.7%
O=C(Cc1ccccc1)NC1=NC[C@@H](c2ccccc2)N1CCc1ccccc1 [1295.220] | -5.2%
O=C(Cc1ccccc1)NC1=NC[C@H](Cc2cccnc2)N1CCc1ccccc1 [1295.229] | -23.1%
CC(C)CCN1C(NC(=O)Cc2ccccc2)=NC[C@@H]1Cc1ccccc1 [1295.257] | -28.5%
O=C(Cc1ccccc1)NC1=NC[C@H](Cc2ccccc2)N1CCc1cccc(F)c1 [1295.238] | 34.6%
O=C(Cc1ccccc1)NC1=NC[C@H](Cc2ccccc2)N1CCc1cc(C(F)(F)F)cc(C(F)(F)F)c1 [1295.246] | 20.0%
O=C(Cc1ccccc1)NC1=NC[C@H](c2ccccc2)N1CCc1ccccc1 [1295.219] | 0.1%
O=C(Cc1ccccc1)NC1=NC[C@H](Cc2ccccc2)N1CCc1ccc(Br)cc1 [1295.242] | 67.1%

SMILES | % Inhibition RORγ 5 μg/ml
O=C(Cc1ccccc1)NC1=NC[C@@H](Cc2ccc(F)cc2)N1CCc1ccccc1 [1295.228] | 31.3%
CCN1C(NC(=O)Cc2ccccc2)=NC[C@@H]1Cc1ccccc1 [1295.264] | 7.5%
CC(C)(C)[C@@H]1CN=C(NC(=O)Cc2ccccc2)N1CCc1ccccc1 [1295.232] | 8.2%
Cc1cccc(CC(=O)NC2=NC[C@H](Cc3ccccc3)N2CCc2ccccc2)c1 [1295.275] | 60.7%
O=C(Cc1ccccc1)NC1=NC[C@H](Cc2ccccc2)N1CCCC1CCCC1 [1295.267] | 56.2%
O=C(Cc1ccccc1)NC1=NC[C@H](Cc2ccc3ccccc3c2)N1CCc1ccccc1 [1295.221] | 31.3%
O=C(Cc1ccccc1)NC1=NC[C@H](Cc2ccc(F)cc2)N1CCc1ccccc1 [1295.227] | -8.2%
O=C(Cc1ccc(F)cc1)NC1=NC[C@H](Cc2ccccc2)N1CCc1ccccc1 [1295.278] | 29.8%
CCCCCCCN1C(NC(=O)Cc2ccccc2)=NC[C@@H]1Cc1ccccc1 [1295.254] | 48.4%
Cc1cccc(CCN2C(NC(=O)Cc3ccccc3)=NC[C@@H]2Cc2ccccc2)c1 [1295.237] | -4.8%
CC(C)(C)CN1C(NC(=O)Cc2ccccc2)=NC[C@@H]1Cc1ccccc1 [1295.259] | -25.1%
CC(C)[C@@H]1CN=C(NC(=O)Cc2ccccc2)N1CCc1ccccc1 [1295.212] | 33.3%
COc1ccc(CCN2C(NC(=O)Cc3ccccc3)=NC[C@@H]2Cc2ccccc2)cc1OC [1295.249] | 42.2%
O=C(Cc1ccccc1)NC1=NC[C@H](Cc2ccccc2)N1CCc1ccc(F)cc1 [1295.240] | 52.2%
CC1(C)CN=C(NC(=O)Cc2ccccc2)N1CCc1ccccc1 [1295.214] | 1.6%
CCC(C)C(=O)NC1=NCC(Cc2ccccc2)N1CCc1ccccc1 (mixture of isomers) [1295.296] | 41.7%
CCOc1ccc(CC(=O)NC2=NC[C@H](Cc3ccccc3)N2CCc2ccccc2)cc1 [1295.282] | -2.3%
O=C(Cc1ccccc1)NC1=NC[C@H](Cc2ccccc2)N1CCc1cccc(Br)c1 [1295.239] | 47.8%
O=C(Cc1ccccc1)NC1=NC[C@H](CC2CCCCC2)N1CCc1ccccc1 [1295.223] | 3.4%
O=C(NC1=NC[C@H](Cc2ccccc2)N1CCc1ccccc1)C1CCC1 [1295.302] | 24.7%
O=C(Cc1ccccc1)NC1=NC[C@@H](Cc2ccc3ccccc3c2)N1CCc1ccccc1 [1295.222] | 22.4%
COc1ccc(CC(=O)NC2=NC[C@H](Cc3ccccc3)N2CCc2ccccc2)cc1OC [1295.287] | 54.7%
O=C(Cc1ccccc1)NC1=NC[C@H](Cc2ccc(O)cc2)N1CCc1ccccc1 [1295.207] | -85.0%

SMILES | % Inhibition RORγ 5 μg/ml
O=C(Cc1ccccc1)NC1=NC[C@H](Cc2ccccc2)N1CCCCc1ccccc1 [1295.252] | -2.3%
CC(=O)NC1=NC[C@H](Cc2ccccc2)N1CCc1ccccc1 [1295.301] | 15.4%
COc1ccc(CCC(=O)NC2=NC[C@H](Cc3ccccc3)N2CCc2ccccc2)cc1OC [1295.284] | 34.0%
O=C(Cc1ccccc1)NC1=NC[C@H](Cc2ccccc2)N1CC1CCCCC1 [1295.260] | -10.7%
CCOc1ccc(C[C@@H]2CN=C(NC(=O)Cc3ccccc3)N2CCc2ccccc2)cc1 [1295.234] | -7.7%
CC(C)Cc1ccc(C(C)CN2C(NC(=O)Cc3ccccc3)=NCC2Cc2ccccc2)cc1 (mixture of isomers) [1295.245] | 21.5%
CCOc1ccc(C[C@H]2CN=C(NC(=O)Cc3ccccc3)N2CCc2ccccc2)cc1 [1295.233] | 31.0%
O=C(Cc1ccccc1)NC1=NC[C@H](Cc2ccccc2)N1CCc1ccccc1 [1295.291] | 5.6%
C[C@@H]1CN=C(NC(=O)Cc2ccccc2)N1CCc1ccccc1 [1295.208] | -9.3%
O=C(Cc1cccc(F)c1)NC1=NC[C@H](Cc2ccccc2)N1CCc1ccccc1 [1295.276] | 104.2%
Cc1cccc(C(=O)NC2=NC[C@H](Cc3ccccc3)N2CCc2ccccc2)c1 [1295.288] | 59.9%
CCCC(=O)NC1=NC[C@H](Cc2ccccc2)N1CCc1ccccc1 [1295.293] | 37.4%
CCC[C@@H]1CN=C(NC(=O)Cc2ccccc2)N1CCc1ccccc1 [1295.216] | 24.5%
O=C(Cc1ccccc1)NC1=NC[C@H](Cc2ccccc2)N1CC1CCCC1 [1295.266] | 99.6%
CCCCN1C(NC(=O)Cc2ccccc2)=NC[C@@H]1Cc1ccccc1 [1295.253] | -12.1%
C[C@H]1CN=C(NC(=O)Cc2ccccc2)N1CCc1ccccc1 [1295.201] | -40.7%
CC(C)[C@H]1CN=C(NC(=O)Cc2ccccc2)N1CCc1ccccc1 [1295.206] | 32.7%
O=C(Cc1ccc(Br)cc1)NC1=NC[C@H](Cc2ccccc2)N1CCc1ccccc1 [1295.280] | 42.0%
O=C(CCCc1ccccc1)NC1=NC[C@H](Cc2ccccc2)N1CCc1ccccc1 [1295.290] | 60.2%
O=C(Cc1ccccc1)NC1=NC[C@@H](Cc2cccnc2)N1CCc1ccccc1 [1295.230] | -16.0%
COc1cccc(CCN2C(NC(=O)Cc3ccccc3)=NC[C@@H]2Cc2ccccc2)c1 [1295.241] | 7.4%
CC(C)CN1C(NC(=O)Cc2ccccc2)=NC[C@@H]1Cc1ccccc1 [1295.255] | -9.8%
